According to publication PMC9433906, “Evaluation of the biotechnological potential of peptide Cupiennin 1a and analogs” (Frontiers in Microbiology, 2022):
≈ marks a conversion by molar mass, not a printed value. Where a SMILES comes first, the peptide text is derived from it.

Columns and labels:
[1] = system: S. aureus (ATCC 25923); format: cell-based, Staphylococcus aureus; settings: S. aureus (ATCC25923); 5×10^5 CFU.ml^−1, Mueller-Hinton Broth, 37°C, 24 h, OD 595 nm, biological triplicates
Protocol: (§1) Susceptibility tests were performed using clinical isolates of Klebsiella pneumoniae carbapenemase (KPC 1410503) and methicillin-resistant S. aureus (MRSA 3730592). Tests were also performed with ATCC (American Type Culture Collection) isolates of K. pneumoniae (ATCC 13883) and S. aureus (ATCC 25923).
(§2) Two multidrug-resistant clinical isolates and two ATCC isolates were chosen to perform microbial susceptibility testing as models for studies with bacteria susceptible to antimicrobials found in the Gram-Positive and Gram-Negative groups of bacteria.
(§3) The broth microdilution method was performed according to the Clinical and Laboratory Standards Institute (CLSI) M07-A10 protocol to determine the Minimum Inhibitory Concentration (MIC; [Clinical Laboratory Standards Institute, 2015]). The assay was performed on 96-well microplates (TPP, United States), containing 5×10^5 CFU.ml^−1 of each tested bacterium per well and different peptide micromolar concentrations (Table 1) in a final volume of 100 μl of Mueller-Hinton Broth (MH). Negative control was represented by bacteria incubated in MH medium, while positive control was represented by culture incubated in MH medium with Amikacin. Plates were kept under agitation at 37°C in a BioTek spectrophotometer (PowerWaveTM HT Microplate Reader) with optical density (OD) readings at 595 nm every 30 min for 24 h. Inhibition results were analyzed using GraphPad Prism 8 software by comparing the OD from negative control wells (100%) to those containing peptides. All tests were performed in biological triplicates.

[2] = system: methicillin-resistant S. aureus (MRSA 3730592); format: cell-based, Staphylococcus aureus; settings: Methicillin-Resistant S. aureus—MRSA clinical isolate 3730592; 5×10^5 CFU.ml^−1, Mueller-Hinton Broth, 37°C, 24 h, OD 595 nm, biological triplicates
Protocol: as §1, §2, §3

[3] = system: K. pneumoniae (ATCC 13883); format: cell-based, Klebsiella pneumoniae; settings: K. pneumoniae (ATCC13883); 5×10^5 CFU.ml^−1, Mueller-Hinton Broth, 37°C, 24 h, OD 595 nm, biological triplicates
Protocol: as §1, §2, §3

[4] = system: Spodoptera frugiperda (SF21) cells; experiment: In vitro test against insect cells (MTT); format: cell-based; settings: 24 h
Protocol: To evaluate the ability of the peptides to cause lysis and morphological changes in insect cells ([Dutra, 2019]; Patent: BR 102022 006138 6) as a first screening of the insecticidal activity of the peptides, in this work, the Spodoptera IPLB-SF-21AE _LVI-Cenargen cell line ([Vaughn et al., 1977]) was used and different concentrations of the peptides were added to the culture medium.
Cells were maintained at 27°C in TNMFH medium (Grace’s insect medium supplemented with lactalbumin hydrolyzate and yeastolate), supplemented with 10% (v/v) fetal bovine serum (Sigma-Aldrich; [Castro et al., 2006]).
Cell cultivation was carried out in 10 ml culture bottles, model K11-1050 25cm^2, with 5 ml of culture medium per bottle. For the assays, the SF21 cells were grown in TNMFH medium, added 10% (v/v) of bovine fetal serum, and distributed in plates of 96 wells at the concentration of 2×10^4 cells per well, after counting was performed in the Neubauer chamber. Cell suspension was distributed in a volume of 100 μl per well. Peptides were diluted in TNMFH medium and 100 μl of medium with peptide was added, obtaining concentrations of 10, 5, and 1 μM, reaching the volume of 200 μl at the final concentrations of reaction per well. Cells were placed in incubation at 27°C, for 24 h.
After 24 h, the cells were analyzed for their modifications, morphological alterations, turbidity of the medium, formation of clumps, and/or lysis in the presence of peptides, by observation under optical microscopy (Nikon Eclipse TS100) with 20× and 40× magnification. Characteristics that could represent cell death or cell dysfunction caused by the peptides were observed compared to control cells. Cells were evaluated by cell viability using the MTT test 3-[4,5-dimethylthiazole-2-yl]-2,5-diphenyltetrazolium bromide 0.5 mg.ml^−1 (Sigma-Aldrich). To perform the test, the cell culture medium was discarded, and we added 100 μl of new medium. Ten μl of MTT was added to each well and incubated for 4 h, with the plates protected from light. After 4 h, we added 100 μl of DMSO to each well to dissolve the formazan crystals, and the reading in the microplate reader ([Riss et al., 2016]) was then performed. The results were analyzed using GraphPad Prism 8 software, where a One-Way ANOVA statistical test was followed by Bonferroni’s multiple comparisons test.

[5] = system: RAW 264.7 cells; experiment: MTT cytotoxicity test against RAW 264.7; format: cell-based, mice; settings: 24 h; for toxicity against RAW264.7 cells (in words): tested concentrations of Table 1 (128–16 μg.ml^−1)
Protocol: The cell line RAW 264.7 was obtained from the Rio de Janeiro Cell Bank (CR108). These cells are macrophages derived from induced tumors in male BALB/c mice infected with Abelson’s murine leukemia virus ([Raschke et al., 1978]). RAW264.7 cells were grown in DMEM medium (Dulbecco’s Modified Eagle’s medium, composed of CaCl2 (anhydrous) 200 mg.ml^−1, Fe(NO3).9H2O 0.1 mg.ml^−1, KCL 400 mg.ml^−1, MgSO4 (anhydrous) 97.67 mg.ml^−1, NaCL 6.400 mg.ml^−1, NaH2PO4.H2O 125 mg.ml^−1) supplemented with 10% (v/v) of bovine fetal serum, 0.5% (v/v) of DMEM amino acid solution, 0.05% (w/v) gentamicin, 0.5% (w/v) of L-glutamine, and 0.5% (w/v) of penicillin/streptomycin (1,000 U.ml^−1) in an incubator containing 5% CO2, at 37°C, and 95% humidity ([Raschke et al., 1978]; [Nguyen et al., 2017]).
RAW 264.7 cells were seeded in 96-well plates, at a concentration of 10^4 cells/well, and incubated for 24 h. Each peptide was subsequently added at different micromolar concentrations (Table 1). Positive control was performed by cells in culture medium and negative control, as cell culture in lysis solution (10 mM Tris, 1 mM EDTA, and 0.1% Triton X-100, pH 7.4).
Cell viability analyses were performed in technical and biological replicates, and readings were obtained after 24 h of contact with peptides. At the end of the incubation period, MTT (Sigma-Aldrich, United States) was used to assess the ability of living cells to reduce salt 3-[4,5-dimethylthiazole-2-yl]-2,5-diphenyltetrazolium bromide for formazan production. Plates were read at 570 ηm ([Mosmann, 1983]) and results were expressed in the percentage of living cells. The results were analyzed using GraphPad Prism 8 software where a One-Way ANOVA statistical test was followed by Bonferroni’s multiple comparisons test.

[6] = lowest concentration tested (1 μM)

Row | SMILES | Minimum inhibitory concentration (MIC) [1] | Minimum inhibitory concentration (MIC) [2] | Minimum inhibitory concentration (MIC) [3] | viable cells (SF21) ([4]; 10 μM) | cell viability (SF21) ([4]; 5 and 1 μM) | toxicity to RAW264.7 cells at the MIC concentration (in words) ([5]; R1b: MIC found for KPC1410503, R3b: MIC at high concentrations against all tested microorganisms) | toxicity against RAW264.7 cells (in words) [5] | cell viability (SF21) [4, 6] | cell viability (RAW264.7) in the MIC found for the two strains of S. aureus ([5]; at the MIC of R6b for these strains (17.7 μM in Table 3)) | cell viability in RAW264.7 cells from the MIC concentration found for MRSA3730592, S. aureus ATCC25923, K. pneumoniae ATCC13883 ([5]; at the MIC of R8b for these strains (17.60 μM in Table 3)) | cell viability in RAW cells at the MIC value found for bacteria ([5]; 17.07 and 8.53 μM)
1 | CC(C)C[C@H](NC(=O)[C@H](C)NC(=O)CNC(=O)[C@H](Cc1ccccc1)NC(=O)CN)C(=O)N[C@@H](Cc1ccccc1)C(=O)N[C@@H](CCCCN)C(=O)N[C@@H](CCCNC(=N)N)C(=O)N[C@@H](CC(C)C)C(=O)N[C@@H](C)C(=O)N[C@@H](CCCCN)C(=O)N[C@@H](CCCCN)C(=O)N[C@H](C(=O)N[C@@H](C)C(=O)N[C@@H](CCCCN)C(=O)N[C@H](C(=O)N[C@H](C(=O)N[C@@H](C)C(N)=O)C(C)C)[C@@H](C)O)C(C)C [Peptide R3b] (H-GFGALFKRLAKKVAKTVA-NH2) | 67.21 µM (≈ 128 µg/mL) | 67.21 µM (≈ 128 µg/mL) | 67.21 µM (≈ 128 µg/mL) | 14% | greater than 50% | toxic | high toxicity | – | – | – | –
2 | CC(C)C[C@H](NC(=O)[C@H](C)NC(=O)CNC(=O)[C@H](Cc1ccccc1)NC(=O)CN)C(=O)N[C@@H](Cc1ccccc1)C(=O)N[C@@H](CCCCN)C(=O)N[C@@H](Cc1ccccc1)C(=O)N[C@@H](CC(C)C)C(=O)N[C@@H](C)C(=O)N[C@@H](CCCCN)C(=O)N[C@@H](C)C(=O)N[C@H](C(=O)N[C@@H](C)C(=O)N[C@@H](CCCCN)C(=O)N[C@@H](C)C(=O)N[C@H](C(=O)N[C@@H](C)C(N)=O)C(C)C)C(C)C [Peptide R6b] (H-GFGALFKFLAKAVAKAVA-NH2) | 17.7 µM (≈ 32 µg/mL) | 17.7 µM (≈ 32 µg/mL) | 35.4 µM (≈ 64 µg/mL) | – | – | – | high toxicity | below 50% | 62% | – | –
3 | CC(C)C[C@H](NC(=O)[C@H](C)NC(=O)CNC(=O)[C@H](Cc1ccccc1)NC(=O)CN)C(=O)N[C@@H](Cc1ccccc1)C(=O)N[C@@H](CCCCN)C(=O)N[C@@H](CCCNC(=N)N)C(=O)N[C@@H](CC(C)C)C(=O)N[C@@H](C)C(=O)N[C@@H](CCCCN)C(=O)N[C@@H](C)C(=O)N[C@H](C(=O)N[C@@H](C)C(=O)N[C@@H](CCCCN)C(=O)N[C@@H](C)C(=O)N[C@H](C(=O)N[C@@H](C)C(N)=O)C(C)C)C(C)C [Peptide R8b] (H-GFGALFKRLAKAVAKAVA-NH2) | 17.60 µM (≈ 32 µg/mL) | 17.60 µM (≈ 32 µg/mL) | 17.60 µM (≈ 32 µg/mL) | – | – | – | – | below 50% | – | 59% | –
4 | CC(C)C[C@H](NC(=O)[C@H](CCCNC(=N)N)NC(=O)[C@H](CCCCN)NC(=O)[C@H](Cc1ccccc1)NC(=O)[C@H](CC(C)C)NC(=O)[C@H](CCCCN)NC(=O)CNC(=O)[C@H](Cc1ccccc1)NC(=O)CN)C(=O)N[C@@H](C)C(=O)N[C@@H](CCCCN)C(=O)N[C@@H](C)C(=O)N[C@H](C(=O)N[C@@H](C)C(=O)N[C@@H](CCCCN)C(=O)N[C@@H](C)C(=O)N[C@H](C(=O)N[C@@H](C)C(N)=O)C(C)C)C(C)C [Peptide R10b] (H-GFGKLFKRLAKAVAKAVA-NH2) | 8.53 µM (≈ 16 µg/mL) | 8.53 µM (≈ 16 µg/mL) | 17.07 µM (≈ 32 µg/mL) | – | – | – | high toxicity | below 50% | – | – | more than 50%
